In paper PMC8921294, “Inhibition of mitochondrial LonP1 protease by allosteric blockade of ATP binding and hydrolysis via CDDO and its derivatives” (The Journal of Biological Chemistry, 2022):
Changes are numbered by the printed parent chain.

Tests used:
LonP1 C576V = biological target: T1, LonP1 C576V (Homo sapiens, UniProt P36776, C576V); assay: Endpoint ATPase assay, LonP1 C576V; format: biochemical
T1 construct: hexa-histidine (N); made in house; host or cells: Rosetta 2 E. coli
T1 sequence (P36776 68-959 C576V): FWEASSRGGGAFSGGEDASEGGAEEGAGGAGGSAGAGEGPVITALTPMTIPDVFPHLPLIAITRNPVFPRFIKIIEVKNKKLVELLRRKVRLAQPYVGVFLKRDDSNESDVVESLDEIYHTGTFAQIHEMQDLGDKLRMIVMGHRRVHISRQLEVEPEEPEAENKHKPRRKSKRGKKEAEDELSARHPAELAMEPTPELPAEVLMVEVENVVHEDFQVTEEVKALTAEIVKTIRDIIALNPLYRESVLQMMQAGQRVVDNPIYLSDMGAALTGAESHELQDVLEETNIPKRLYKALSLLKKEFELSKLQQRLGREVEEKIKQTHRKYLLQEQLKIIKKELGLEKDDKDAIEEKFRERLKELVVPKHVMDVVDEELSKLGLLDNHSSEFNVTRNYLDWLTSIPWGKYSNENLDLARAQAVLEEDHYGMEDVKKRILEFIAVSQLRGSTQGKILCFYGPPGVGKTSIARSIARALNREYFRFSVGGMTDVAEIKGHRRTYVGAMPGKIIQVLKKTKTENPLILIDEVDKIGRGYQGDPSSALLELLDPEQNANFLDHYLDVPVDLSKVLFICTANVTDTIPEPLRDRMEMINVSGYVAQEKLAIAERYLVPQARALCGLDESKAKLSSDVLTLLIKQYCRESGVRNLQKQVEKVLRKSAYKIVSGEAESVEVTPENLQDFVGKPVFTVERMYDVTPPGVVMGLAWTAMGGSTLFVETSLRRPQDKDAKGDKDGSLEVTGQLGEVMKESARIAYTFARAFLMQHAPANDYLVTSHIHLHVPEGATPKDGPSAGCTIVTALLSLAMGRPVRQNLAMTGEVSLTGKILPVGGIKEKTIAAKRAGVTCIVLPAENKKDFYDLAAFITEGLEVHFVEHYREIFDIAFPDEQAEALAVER
Procedure: (§1) Human mitochondrial LonP1 and mutants lacking the predicted mitochondrial targeting sequence were fused to an N-terminal hexa-histidine affinity tag, expressed in Rosetta 2 E. Coli, and purified using a nickel agarose column as previously described ([72]) and protein concentration and buffer exchange carried out using Amicon Ultra centrifugal filtration. LonP1 mutant constructs were obtained from the PCR-based QuikChange Site-Directed Mutagenesis Kit.
(§2) ADP-Glo (Promega) assays were performed according to the manufacturer's protocols. Purified wild-type or mutant LonP1 (400 nM monomer), the 26S proteasome (3 nM), or no enzyme controls were preincubated in 96-well plates (60 min, 25 °C) with ten different concentrations of CDDO and its derivatives, TP-82, enoxolone (5 μM) or DMSO vehicle control in buffer (40 mM Tris-HCl (pH 7.5), 20 mM MgCl2, 0.1 mg/ml BSA and 5% DMSO). The 26S and 20S proteasome were also assayed at 0, 0.75, 1.5, 3, 6, and 12 nM in the absence of CDDO derivatives. […] Assay reagents were used to quench further ATPase activity and generate luminescence signals proportional to the concentration of ADP formed. Background (no enzyme control) luminescence values were subtracted, and resultant values were reported as a percentage of the no drug control (100%). […]

LonP1 F547A/C637V = biological target: T2, LonP1 F547A/C637V (Homo sapiens, UniProt P36776, C637V/F547A); assay: Endpoint ATPase assay, LonP1 F547A/C637V; format: biochemical
T2 construct: hexa-histidine (N); made in house; host or cells: Rosetta 2 E. coli
T2 sequence (P36776 68-959 F547A/C637V): T1 sequence (P36776 68-959 C576V) with F480A, V509C, C570V
Procedure: as §1, §2

[1] = end-point ATPase assay, read-out: CDDO IC50

With CC1(C)CC[C@]2(C(=O)O)CC[C@]3(C)[C@H](C(=O)C=C4[C@@]5(C)C=C(C#N)C(=O)C(C)(C)[C@@H]5CC[C@]43C)[C@@H]2C1 [CDDO, 2-cyano-3,12-dioxooleana-1,9(11)-dien-28-oic acid] the “Fold increase in inhibition compared with WT” value (LonP1 C576V) was 2.7, the IC50 (LonP1 C576V; [1]) was 5.2 ± 1.5 µM and the “Fold increase in inhibition compared with WT” value (LonP1 F547A/C637V) was 7.4. It also gave an IC50 (LonP1 F547A/C637V; [1]) of 1.9 ± 0.3 µM.
